Entries after “also recorded” stand apart in the source; their conditions may differ.
Tests used:
[1] = Water Vapour Sorption isotherm (DVS), hygroscopicity acc. to Ph. Eur.; assay type: physicochemical; settings: for Hygroscopicity classification acc. to Ph. Eur. criteria (section 5.11.): based on water uptake difference 40-80% rh; for Water uptake level (Water Vapour Sorption): isotherm 25° C.
Description: As used herein, unless stated otherwise, Water Vapour Sorption isotherm measurements are carried out on a DVS-1 or a DVS-Intrinsic system from SMS.

[2] = Miniaturized non-sink dissolution in FaSSIF pH 6.5; assay type: physicochemical; settings: for Dissolution levels in FaSSIF pH 6.5: 37° C.; for Dissolution level in FaSSIF: FaSSIF pH 6.5, 37° C.
Description: Approx. 10-20 mg of solid sample were weighed into glass vials. 7 ml of respective FaSSIF (pH 6.5) medium (prewarmed to 37° C.) were added and the suspension was shaken at 450 rpm at 37° C. After 5 min, 15 min, 60 min, and 120 min, 1 ml suspension was withdrawn and filtered through a 0.2 µm syringe filter. Clear filtrate was analysed by HPLC after suitable dilution to measure the amount of API dissolved. To get non-sink conditions 1 ml pre warmed FaSSiF solution was added after sample was withdrawn.
The clear solution was collected in HPLC vials, the filtrate further diluted if necessary and finally HPLC analysis was carried out.
HPLC method for ph-dependent solubility & miniaturised non-sink dissolution: • Column: Chromolith RP-18e 100 - 3 mm • Solvent A: water/formic acid (999:1; v/v) • Solvent B: acetonitrile/formic acid (999:1; v/v) • Injection volume: 5 µL • Column temperature: 37° C. • Wavelength detector: 218 nm

[3] = relative humidity range 40-80% rh

| Compound | Hygroscopicity classification acc. to Ph. Eur. criteria (section 5.11.) [1] | Water uptake level (Water Vapour Sorption) [1, 3] | Tendency to undergo hydrate formation upon exposure to elevated RH levels ([1]; up to 90% RH) | Dissolution level in FaSSIF ([2]; after 15 min) | Dissolution level in FaSSIF ([2]; after 60 min) | Dissolution level in FaSSIF ([2]; after 120 min) | also measured |
| --- | --- | --- | --- | --- | --- | --- | --- |
| COc1ccc2nc3cc(Cl)ccc3c(Nc3cc(CN4CCCC4)c(O)c(CN4CCCC4)c3)c2n1 [Form III, 4-[(7-chloro-2-methoxybenzo[b][1,5]naphthyridin-10-yl)amino]-2,6-bis(pyrrolidin-1-ylmethyl)phenol] | slightly hygroscopic | 1.5 wt% | no tendency to undergo hydrate formation | approx. 0.46 mg/mL | approx. 0.48 mg/mL | approx. 0.47 mg/mL | Dissolution levels in FaSSIF pH 6.5 ([2]; 5 min, listed as Edisylate salt Form III): 406.7 µg/mL; Dissolution levels in FaSSIF pH 6.5 ([2]; 15 min, listed as Edisylate salt Form III): 462.7 µg/mL; Dissolution levels in FaSSIF pH 6.5 ([2]; 60 min, listed as Edisylate salt Form III): 483.3 µg/mL; Dissolution levels in FaSSIF pH 6.5 ([2]; 120 min, listed as Edisylate salt Form III): 469.7 µg/mL |
| COc1ccc2nc3cc(Cl)ccc3c(Nc3cc(CN4CCCC4)c(O)c(CN4CCCC4)c3)c2n1 [Tetraphosphate form, 4-[(7-chloro-2-methoxybenzo[b][1,5]naphthyridin-10-yl)amino]-2,6-bis(pyrrolidin-1-ylmethyl)phenol tetraphosphate, reference compound] | hygroscopic | > 4.9 wt% | – | approx. 0.50 mg/mL | approx. 0.50 mg/mL | approx. 0.49 mg/mL | Hygroscopicity classification acc. to Ph. Eur. criteria (section 5.11.) ([1]; listed as pyronaridine): hygroscopic; Dissolution levels in FaSSIF pH 6.5 ([2]; 5 min, listed as Pyronaridine (tetraphosphate salt, prior art form)): 501.4 µg/mL; Dissolution levels in FaSSIF pH 6.5 ([2]; 15 min, listed as Pyronaridine (tetraphosphate salt, prior art form)): 501.9 µg/mL; Dissolution levels in FaSSIF pH 6.5 ([2]; 60 min, listed as Pyronaridine (tetraphosphate salt, prior art form)): 501.3 µg/mL; Dissolution levels in FaSSIF pH 6.5 ([2]; 120 min, listed as Pyronaridine (tetraphosphate salt, prior art form)): 491.3 µg/mL |
| COc1ccc2nc3cc(Cl)ccc3c(Nc3cc(CN4CCCC4)c(O)c(CN4CCCC4)c3)c2n1 [Form I, 4-[(7-chloro-2-methoxybenzo[b][1,5]naphthyridin-10-yl)amino]-2,6-bis(pyrrolidin-1-ylmethyl)phenol] | hygroscopic | 2.4 wt% | – | approx. 0.56 mg/mL | approx. 0.55 mg/mL | approx. 0.54 mg/mL | Dissolution levels in FaSSIF pH 6.5 ([2]; 5 min, listed as Tosylate salt Form I): 547.9 µg/mL; Dissolution levels in FaSSIF pH 6.5 ([2]; 15 min, listed as Tosylate salt Form I): 557.9 µg/mL; Dissolution levels in FaSSIF pH 6.5 ([2]; 60 min, listed as Tosylate salt Form I): 552.8 µg/mL; Dissolution levels in FaSSIF pH 6.5 ([2]; 120 min, listed as Tosylate salt Form I): 537.7 µg/mL |
| COc1ccc2nc3cc(Cl)ccc3c(Nc3cc(CN4CCCC4)c(O)c(CN4CCCC4)c3)c2n1 [Form IV, 4-[(7-chloro-2-methoxybenzo[b][1,5]naphthyridin-10-yl)amino]-2,6-bis(pyrrolidin-1-ylmethyl)phenol] | slightly hygroscopic | 0.6 wt% | no tendency to undergo hydrate formation | approx. 0.17 mg/mL | approx. 0.56 mg/mL | approx. 0.82 mg/mL | Dissolution levels in FaSSIF pH 6.5 ([2]; 5 min, listed as Napsylate salt Form IV): 116.6 µg/mL; Dissolution levels in FaSSIF pH 6.5 ([2]; 15 min, listed as Napsylate salt Form IV): 209.0 µg/mL; Dissolution levels in FaSSIF pH 6.5 ([2]; 60 min, listed as Napsylate salt Form IV): 488.8 µg/mL; Dissolution levels in FaSSIF pH 6.5 ([2]; 120 min, listed as Napsylate salt Form IV): 630.0 µg/mL |
| COc1ccc2nc3cc(Cl)ccc3c(Nc3cc(CN4CCCC4)c(O)c(CN4CCCC4)c3)c2n1 [Form VI, 4-[(7-chloro-2-methoxybenzo[b][1,5]naphthyridin-10-yl)amino]-2,6-bis(pyrrolidin-1-ylmethyl)phenol] | non-hygroscopic | < 0.1 wt% | – | – | – | – | Tendency to undergo hydrate formation upon exposure to elevated RH levels ([1]; up to 98% RH): no tendency to undergo hydrate formation |
| COc1ccc2nc3cc(Cl)ccc3c(Nc3cc(CN4CCCC4)c(O)c(CN4CCCC4)c3)c2n1 [Form II, 4-[(7-chloro-2-methoxybenzo[b][1,5]naphthyridin-10-yl)amino]-2,6-bis(pyrrolidin-1-ylmethyl)phenol] | slightly hygroscopic | – | – | approx. 0.45 mg/mL | approx. 0.44 mg/mL | approx. 0.44 mg/mL | Water uptake level (Water Vapour Sorption) ([1]; relative humidity range 40-90% rh): 1.4 wt%; Dissolution levels in FaSSIF pH 6.5 ([2]; 5 min, listed as Besylate salt Form II): 432.8 µg/mL; Dissolution levels in FaSSIF pH 6.5 ([2]; 15 min, listed as Besylate salt Form II): 447.0 µg/mL; Dissolution levels in FaSSIF pH 6.5 ([2]; 60 min, listed as Besylate salt Form II): 440.1 µg/mL; Dissolution levels in FaSSIF pH 6.5 ([2]; 120 min, listed as Besylate salt Form II): 444.5 µg/mL |
| COc1ccc2nc3cc(Cl)ccc3c(Nc3cc(CN4CCCC4)c(O)c(CN4CCCC4)c3)c2n1 [Form VII, 4-[(7-chloro-2-methoxybenzo[b][1,5]naphthyridin-10-yl)amino]-2,6-bis(pyrrolidin-1-ylmethyl)phenol] | non-hygroscopic; also recorded: slightly hygroscopic | < 0.1 wt% | – | – | – | – | Tendency to undergo hydrate formation upon exposure to elevated RH levels ([1]; up to 98% RH): no tendency to undergo hydrate formation |
| COc1ccc2nc3cc(Cl)ccc3c(Nc3cc(CN4CCCC4)c(O)c(CN4CCCC4)c3)c2n1 [Form V, 4-[(7-chloro-2-methoxybenzo[b][1,5]naphthyridin-10-yl)amino]-2,6-bis(pyrrolidin-1-ylmethyl)phenol] | slightly hygroscopic; also recorded: non-hygroscopic | 0.6 wt% | no tendency to undergo hydrate formation | approx. 0.17 mg/mL | approx. 0.56 mg/mL | approx. 0.82 mg/mL | Dissolution levels in FaSSIF pH 6.5 ([2]; 5 min, listed as Napsylate salt Form V): 95.2 µg/mL; Dissolution levels in FaSSIF pH 6.5 ([2]; 15 min, listed as Napsylate salt Form V): 171.1 µg/mL; Dissolution levels in FaSSIF pH 6.5 ([2]; 60 min, listed as Napsylate salt Form V): 564.1 µg/mL; Dissolution levels in FaSSIF pH 6.5 ([2]; 120 min, listed as Napsylate salt Form V): 817.6 µg/mL |

From patent US20230295156A1, “CRYSTALLINE FORMS OF 4-[(7-CHLORO-2-METHOXYBENZO[B][1,5]NAPHTHYRIDIN-10-YL)AMINO]-2,6-BIS(PYRROLIDIN-1-YLMETHYL)PHENOL AND SALTS THEREOF” (Merck Patent GmbH, priority 2020, published 2023)
